# Source: US20090012045A1, “Methods of Treating Cell Proliferative Disorders” (RIGEL PHARMACEUTICALS, INC., priority 2007, published 2009)
# Assays:
# [1] = tested on: NCI-H460; conditions: NCI-H460 (Non-Small Cell Lung Cancer)
# [2] = tested on: HS 578T; conditions: HS 578T (Breast Cancer)
# [3] = tested on: SK-MEL-5; conditions: SK-MEL-5 (Melanoma)
# [4] = tested on: MOLT-4; conditions: MOLT-4 (Leukemia)
# [5] = tested on: SK-MEL-2; conditions: SK-MEL-2 (Melanoma)
# [6] = tested on: NCI-H522; conditions: NCI-H522 (Non-Small Cell Lung Cancer)
# [7] = tested on: DU-145; conditions: DU-145 (Prostate Cancer)
# [8] = tested on: CCRF-CEM; conditions: CCRF-CEM (Leukemia)
# [9] = tested on: HL-60(TB); conditions: HL-60(TB) (Leukemia)
# [10] = tested on: CAKI-1; conditions: CAKI-1 (Renal Cancer)
# [11] = tested on: A498; conditions: A498 (Renal Cancer)
# [12] = tested on: COLO 205; conditions: COLO 205 (Colon Cancer)
# [13] = tested on: MALME-3M; conditions: MALME-3M (Melanoma)
# [14] = tested on: BT-549; conditions: BT-549 (Breast Cancer)
# [15] = tested on: M14; conditions: M14 (Melanoma)
# [16] = tested on: MDA-MB-231/ATCC; conditions: MDA-MB-231/ATCC (Breast Cancer)
# [17] = tested on: UACC-62; conditions: UACC-62 (Melanoma)
# [18] = tested on: NCI/ADR-RES; conditions: NCI/ADR-RES (Breast Cancer)
# [19] = tested on: T-47D; conditions: T-47D (Breast Cancer)
# [20] = tested on: MCF7; conditions: MCF7 (Breast Cancer)
# [21] = tested on: RXF 393; conditions: RXF 393 (Renal Cancer)
# [22] = tested on: SK-MEL-28; conditions: SK-MEL-28 (Melanoma)
# [23] = tested on: UACC-257; conditions: UACC-257 (Melanoma)
# [24] = tested on: OVCAR-4; conditions: OVCAR-4 (Ovarian Cancer)
# [25] = tested on: MDA-MB-435; conditions: MDA-MB-435 (Breast Cancer)
# [26] = tested on: SW-620; conditions: SW-620 (Colon Cancer)
# [27] = tested on: SF-539; conditions: SF-539 (CNS Cancer)
compound,measurement,setting,value
"COc1cc(Nc2ncc(F)c(Nc3ccc4c(n3)NC(=O)C(C)(C)O4)n2)cc(OC)c1OC.O=S(=O)(O)c1ccccc1 [Compound 1 (besylate salt), N4-(2,2-Dimethyl-3-oxo-4H-5-pyrid[1,4]oxazin-6-yl)-5-fluoro-N2-(3,4,5-trimethoxyphenyl)-2,4-pyrimidinediamine Benzenesulfonic Acid Salt]",TGI,[1],>1.00E−4
same,CC50,[1]; read-out: LC50,> 100 µM
same,GI50,[2],1.19 µM
same,TGI,[2],>1.00E−4
same,CC50,[2]; read-out: LC50,> 100 µM
same,GI50,[3],> 100 µM
same,TGI,[3],>1.00E−4
same,CC50,[3]; read-out: LC50,> 100 µM
same,GI50,[4],4.82 µM
same,TGI,[4],>1.00E−4
same,CC50,[4]; read-out: LC50,> 100 µM
same,GI50,[5],> 100 µM
same,TGI,[5],>1.00E−4
same,CC50,[5]; read-out: LC50,> 100 µM
same,TGI,[6],>1.00E−4
same,CC50,[6]; read-out: LC50,> 100 µM
same,TGI,[7],>1.00E−4
same,CC50,[7]; read-out: LC50,> 100 µM
same,TGI,[8],>1.00E−4
same,CC50,[8]; read-out: LC50,> 100 µM
same,GI50,[9],> 100 µM
same,TGI,[9],>1.00E−4
same,CC50,[9]; read-out: LC50,> 100 µM
same,GI50,[10],0.0515 µM
same,TGI,[10],2.44E−6
same,CC50,[10]; read-out: LC50,> 100 µM
same,GI50,[11],0.36 µM
same,CC50,[11]; read-out: LC50,> 100 µM
same,GI50,[12],7.26 µM
same,TGI,[12],>1.00E−4
same,CC50,[12]; read-out: LC50,> 100 µM
same,GI50,[13],> 100 µM
same,TGI,[13],>1.00E−4
same,CC50,[13]; read-out: LC50,> 100 µM
same,GI50,[14],2.43 µM
same,TGI,[14],>1.00E−4
same,CC50,[14]; read-out: LC50,> 100 µM
same,GI50,[15],> 100 µM
same,TGI,[15],>1.00E−4
same,CC50,[15]; read-out: LC50,> 100 µM
same,TGI,[16],>1.00E−4
same,CC50,[16]; read-out: LC50,> 100 µM
same,TGI,[17],>1.00E−4
same,CC50,[17]; read-out: LC50,> 100 µM
same,GI50,[18],> 100 µM
same,TGI,[18],>1.00E−4
same,CC50,[18]; read-out: LC50,> 100 µM
same,TGI,[19],>1.00E−4
same,CC50,[19]; read-out: LC50,> 100 µM
same,GI50,[20],2.72 µM
same,TGI,[20],>1.00E−4
same,CC50,[20]; read-out: LC50,> 100 µM
same,GI50,[21],0.196 µM
same,TGI,[21],7.74E−7
same,CC50,[21]; read-out: LC50,> 100 µM
same,GI50,[22],> 100 µM
same,TGI,[22],>1.00E−4
same,CC50,[22]; read-out: LC50,> 100 µM
same,GI50,[23],> 100 µM
same,TGI,[23],>1.00E−4
same,CC50,[23]; read-out: LC50,> 100 µM
same,GI50,[24],> 100 µM
same,TGI,[24],>1.00E−4
same,CC50,[24]; read-out: LC50,> 100 µM
same,GI50,[25],3.62 µM
same,TGI,[25],>1.00E−4
same,CC50,[25]; read-out: LC50,> 100 µM
same,TGI,[26],>1.00E−4
same,CC50,[26]; read-out: LC50,> 100 µM
same,GI50,[27],0.605 µM
same,CC50,[27]; read-out: LC50,> 100 µM
